For six cell lines, relative viability results are on record in the supplement of paper PMC10307832.

Holding throughout (experiment): relative viability (nuclei count vs DMSO), 5 days (fraction); higher = more cells survive
Compound in the assay “Tozasertib + Trametinib”: Cc1cc(Nc2cc(N3CCN(C)CC3)nc(Sc3ccc(NC(=O)C4CC4)cc3)n2)n[nH]1 [Tozasertib] + CC(=O)Nc1cccc(-n2c(=O)n(C3CC3)c(=O)c3c(Nc4ccc(I)cc4F)n(C)c(=O)c(C)c32)c1 [Trametinib] (partner 0.02 µM)
The gist of the method: (§1)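 Relative viability was taken as the ratio of nuclei in treated wells to nuclei in vehicle wells. Lung cancer cell lines in 1536-well plates received compounds by pin tool one day after seeding, either one drug alone or a fixed anchor-drug dose plus five library-drug doses (not always all listed) in √10 steps. Nuclei were counted on 4× images after 5 days of treatment, and values are medians of duplicate plates.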

Compound in the assay “Tozasertib + Foretinib”: Cc1cc(Nc2cc(N3CCN(C)CC3)nc(Sc3ccc(NC(=O)C4CC4)cc3)n2)n[nH]1 [Tozasertib] + COc1cc2c(Oc3ccc(NC(=O)C4(C(=O)Nc5ccc(F)cc5)CC4)cc3F)ccnc2cc1OCCCN1CCOCC1 [Foretinib] (partner 0.25 µM)
In outline:
as §1

Compound in the assay “Tozasertib + Linsitinib”: Cc1cc(Nc2cc(N3CCN(C)CC3)nc(Sc3ccc(NC(=O)C4CC4)cc3)n2)n[nH]1 [Tozasertib] + C[C@]1(O)C[C@@H](c2nc(-c3ccc4ccc(-c5ccccc5)nc4c3)c3c(N)nccn32)C1 [Linsitinib] (partner 1 µM)
The gist of the method: as §1

Compound in the assay “Tozasertib + Alpelisib”: Cc1cc(Nc2cc(N3CCN(C)CC3)nc(Sc3ccc(NC(=O)C4CC4)cc3)n2)n[nH]1 [Tozasertib] + Cc1nc(NC(=O)N2CCC[C@H]2C(N)=O)sc1-c1ccnc(C(C)(C)C(F)(F)F)c1 [Alpelisib] (partner 2 µM)
The gist of the method: as §1

Compound in the assay “Tozasertib + Decitabine”: Cc1cc(Nc2cc(N3CCN(C)CC3)nc(Sc3ccc(NC(=O)C4CC4)cc3)n2)n[nH]1 [Tozasertib] + Nc1ncn([C@H]2C[C@H](O)[C@@H](CO)O2)c(=O)n1 [Decitabine] (partner 2 µM)
The gist of the method:
as §1

In the case of PC-14, the relative viability with Tozasertib + Trametinib (first compound 0.01265 µM) stood at 0.767; with Tozasertib + Trametinib (first compound 0.04 µM), 0.994; with Tozasertib + Trametinib (first compound 0.1265 µM) it was 0.595; with Tozasertib + Foretinib (first compound 0.004 µM) it was 0.966; with Tozasertib + Foretinib (first compound 0.01265 µM), 1.09; in the assay with Tozasertib + Foretinib (first compound 0.04 µM) it was 1.04. The relative viability stood at 0.986 with Tozasertib + Foretinib (first compound 0.1265 µM); 1.01 with Tozasertib + Linsitinib (first compound 0.004 µM); 1 in the assay with Tozasertib + Linsitinib (first compound 0.01265 µM); 1.03 in the assay with Tozasertib + Linsitinib (first compound 0.04 µM); 0.828 in the assay with Tozasertib + Linsitinib (first compound 0.1265 µM); 0.982 with Tozasertib + Alpelisib (first compound 0.004 µM). Also, the relative viability came to 0.95 with Tozasertib + Alpelisib (first compound 0.01265 µM); 0.954 with Tozasertib + Alpelisib (first compound 0.04 µM); 0.956 with Tozasertib + Alpelisib (first compound 0.1265 µM); 0.21 with Tozasertib + Decitabine (first compound 0.01265 µM); 0.184 with Tozasertib + Decitabine (first compound 0.04 µM); 0.128 in the assay with Tozasertib + Decitabine (first compound 0.1265 µM).

RERF-LC-KJ: the relative viability with Tozasertib + Trametinib (first compound 0.004 µM) came out at 0.807; with Tozasertib + Trametinib (first compound 0.01265 µM), 0.841; with Tozasertib + Trametinib (first compound 0.04 µM), 0.862; with Tozasertib + Foretinib (first compound 0.004 µM) it was 0.795; with Tozasertib + Foretinib (first compound 0.01265 µM), 0.831; with Tozasertib + Foretinib (first compound 0.04 µM), 0.957. Besides, the relative viability is 0.876 with Tozasertib + Linsitinib (first compound 0.004 µM); 0.861 with Tozasertib + Linsitinib (first compound 0.01265 µM); 0.907 with Tozasertib + Linsitinib (first compound 0.04 µM); 0.777 in the assay with Tozasertib + Linsitinib (first compound 0.1265 µM); 0.897 with Tozasertib + Alpelisib (first compound 0.004 µM); 0.761 with Tozasertib + Alpelisib (first compound 0.01265 µM). The relative viability with Tozasertib + Alpelisib (first compound 0.04 µM) turned out to be 0.914; with Tozasertib + Alpelisib (first compound 0.1265 µM) it was 0.599; with Tozasertib + Decitabine (first compound 0.004 µM), 0.532; in the assay with Tozasertib + Decitabine (first compound 0.01265 µM), 0.592; with Tozasertib + Decitabine (first compound 0.04 µM), 0.645; in the assay with Tozasertib + Decitabine (first compound 0.1265 µM) it was 0.508.

For the cell line SK-LU-1, the relative viability with Tozasertib + Trametinib (first compound 0.004 µM) is 0.447; with Tozasertib + Trametinib (first compound 0.01265 µM), 0.505; with Tozasertib + Trametinib (first compound 0.04 µM) it was 0.567; in the assay with Tozasertib + Trametinib (first compound 0.1265 µM) it was 0.461; with Tozasertib + Foretinib (first compound 0.004 µM) it was 0.889; in the assay with Tozasertib + Foretinib (first compound 0.01265 µM), 0.874. For the same cell line, the relative viability was found to be 0.862 with Tozasertib + Foretinib (first compound 0.04 µM); 0.752 with Tozasertib + Foretinib (first compound 0.1265 µM); 1.32 with Tozasertib + Linsitinib (first compound 0.004 µM); 1.09 with Tozasertib + Linsitinib (first compound 0.01265 µM); 1.03 with Tozasertib + Linsitinib (first compound 0.04 µM); 0.957 with Tozasertib + Linsitinib (first compound 0.1265 µM). Besides, the relative viability with Tozasertib + Alpelisib (first compound 0.004 µM) came to 1.27; with Tozasertib + Alpelisib (first compound 0.01265 µM), 1.02; with Tozasertib + Alpelisib (first compound 0.04 µM), 1.19; with Tozasertib + Alpelisib (first compound 0.1265 µM), 0.561; with Tozasertib + Decitabine (first compound 0.004 µM), 0.653; with Tozasertib + Decitabine (first compound 0.01265 µM), 0.678. For the same cell line, the relative viability with Tozasertib + Decitabine (first compound 0.1265 µM) amounted to 0.649.

In the case of SK-MES-1, the relative viability with Tozasertib + Trametinib (first compound 0.004 µM) came to 0.589; with Tozasertib + Trametinib (first compound 0.01265 µM), 0.557; with Tozasertib + Trametinib (first compound 0.04 µM) it was 0.713; in the assay with Tozasertib + Trametinib (first compound 0.1265 µM), 0.616; in the assay with Tozasertib + Foretinib (first compound 0.004 µM) it was 0.934; with Tozasertib + Foretinib (first compound 0.01265 µM), 0.814. Besides, the relative viability came out at 0.884 with Tozasertib + Foretinib (first compound 0.04 µM); 1.03 in the assay with Tozasertib + Foretinib (first compound 0.1265 µM); 1.1 with Tozasertib + Linsitinib (first compound 0.004 µM); 1.02 with Tozasertib + Linsitinib (first compound 0.01265 µM); 1.14 with Tozasertib + Linsitinib (first compound 0.04 µM); 1.1 in the assay with Tozasertib + Linsitinib (first compound 0.1265 µM). Also, the relative viability in the assay with Tozasertib + Alpelisib (first compound 0.004 µM) was 0.967; with Tozasertib + Alpelisib (first compound 0.01265 µM) it was 0.746; in the assay with Tozasertib + Alpelisib (first compound 0.04 µM) it was 0.894; with Tozasertib + Alpelisib (first compound 0.1265 µM) it was 0.535; with Tozasertib + Decitabine (first compound 0.004 µM) it was 0.319; in the assay with Tozasertib + Decitabine (first compound 0.01265 µM), 0.376. Moreover, the relative viability stood at 0.434 in the assay with Tozasertib + Decitabine (first compound 0.04 µM) and 0.316 with Tozasertib + Decitabine (first compound 0.1265 µM).

SW 1573: the relative viability with Tozasertib + Trametinib (first compound 0.004 µM) was 0.521; with Tozasertib + Trametinib (first compound 0.01265 µM) it was 0.652; with Tozasertib + Trametinib (first compound 0.04 µM) it was 0.569; with Tozasertib + Trametinib (first compound 0.1265 µM) it was 0.179; with Tozasertib + Foretinib (first compound 0.004 µM) it was 0.839; with Tozasertib + Foretinib (first compound 0.01265 µM) it was 0.905. In addition, the relative viability with Tozasertib + Foretinib (first compound 0.04 µM) turned out to be 1.02; with Tozasertib + Foretinib (first compound 0.1265 µM), 0.8; with Tozasertib + Linsitinib (first compound 0.004 µM) it was 0.76; in the assay with Tozasertib + Linsitinib (first compound 0.01265 µM), 0.901; with Tozasertib + Linsitinib (first compound 0.1265 µM), 0.517; in the assay with Tozasertib + Alpelisib (first compound 0.004 µM), 0.751. Further, the relative viability with Tozasertib + Alpelisib (first compound 0.01265 µM) was 0.674; with Tozasertib + Alpelisib (first compound 0.04 µM), 0.615; in the assay with Tozasertib + Alpelisib (first compound 0.1265 µM), 0.702; in the assay with Tozasertib + Decitabine (first compound 0.004 µM), 0.351; with Tozasertib + Decitabine (first compound 0.01265 µM), 0.463; in the assay with Tozasertib + Decitabine (first compound 0.04 µM) it was 0.544. Also, the relative viability with Tozasertib + Decitabine (first compound 0.1265 µM) was determined as 0.176.

As for UMC-11, the relative viability came to 0.794 with Tozasertib + Trametinib (first compound 0.004 µM); 0.699 in the assay with Tozasertib + Trametinib (first compound 0.01265 µM); 0.653 with Tozasertib + Trametinib (first compound 0.04 µM); 0.259 with Tozasertib + Trametinib (first compound 0.1265 µM); 0.985 in the assay with Tozasertib + Foretinib (first compound 0.004 µM); 0.995 with Tozasertib + Foretinib (first compound 0.01265 µM). Further, the relative viability in the assay with Tozasertib + Foretinib (first compound 0.04 µM) was found to be 0.788; in the assay with Tozasertib + Foretinib (first compound 0.1265 µM), 0.186; with Tozasertib + Linsitinib (first compound 0.004 µM), 1.1; with Tozasertib + Linsitinib (first compound 0.01265 µM), 1.03; with Tozasertib + Linsitinib (first compound 0.04 µM), 1.06; with Tozasertib + Linsitinib (first compound 0.1265 µM), 0.173. In addition, the relative viability with Tozasertib + Alpelisib (first compound 0.004 µM) came out at 1.08; in the assay with Tozasertib + Alpelisib (first compound 0.01265 µM) it was 0.968; with Tozasertib + Alpelisib (first compound 0.04 µM), 1.13; with Tozasertib + Alpelisib (first compound 0.1265 µM), 0.146; in the assay with Tozasertib + Decitabine (first compound 0.004 µM) it was 0.597; with Tozasertib + Decitabine (first compound 0.01265 µM), 0.499. In addition, the relative viability in the assay with Tozasertib + Decitabine (first compound 0.04 µM) is 0.548; with Tozasertib + Decitabine (first compound 0.1265 µM), 0.189.
